Patent publication US9121022B2, “Method for controlling herbicide-resistant plants” (priority 2010, dated 2015)
Structures can show the parent of a compound that is named as a salt. {Alexa488} = Alexa Fluor 488 (Invitrogen) label

How the values were obtained:
[1] = test system: glyphosate-resistant Palmer amaranth plants; assay: additives (salts, EDTA, glycerin) to polynucleotide spray solutions, percent control and plant height (Example 35, Tables 26-28); assay type: in vivo; conditions: additive in spray solution
Text: The efficacy of different substances (including salts, a chelating agent, a humectant, and polyamines) as polynucleotide transferring agents or as enhancers of a known polynucleotide transferring agent was investigated.

[2] = test system: glyphosate-resistant Palmer amaranth containing 16 copies of EPSPS; assay: glyphosate counter-ions with EPSPS polynucleotides, percent control and plant height (Example 35, Table 29); assay type: in vivo; conditions: for Palmer control (%): Table 29: glyphosate salt 1682 g acid equivalent per hectare, with or without EPSPS polynucleotides IDT [1]-[4] in 0.5% SILWET L-77, 2% ammonium sulfate, 16-copy EPSPS Palmer amaranth, 3 replicates
Text: FIG. 38 depicts the effect of varying glyphosate counter-ions on herbicidal activity (presented as percent of weed control/kill, and as plant height) of topically applied polynucleotides (RNA) on glyphosate-resistant Palmer amaranth plants. A mixture of EPSPS polynucleotides (IDT [1] (SEQ ID NO:83-84), IDT [2] (SEQ ID NO:85-86), IDT [3] (SEQ ID NO:87-88), and IDT [4] (SEQ ID NO:89-90)) in 0.5% SILWET L-77® brand surfactant, 2% ammonium sulfate in 10 millimolar sodium phosphate buffer, pH 6.8 with 0.2% Roundup® WeatherMax® carrier (MON56151 tallowamine surfactant blend of tallowamine (16-18C) and cocoamine (12-14C) in the ratio of 55:45) and 1682 g acid equivalent per hectare of one of the glyphosate salts; K+ glyphosate, isopropylammonium+ glyphosate or monoethanolammonium+ glyphosate at 215 liters/acre by Milli spray on 3 replicates of 4-6 inch glyphosate-resistant Palmer amaranth containing 16 copies of EPSPS. Plant height was scored at 21 days after glyphosate treatment.

[3] = test system: detached leaves of glyphosate-resistant Palmer amaranth; assay: petiole uptake of fluorescently labelled ssDNA oligonucleotide into detached leaves (Example 9); set-up: species or system Palmer amaranth (Amaranthus palmeri)
Description: Petioles of detached leaves of glyphosate-resistant Palmer amaranth were placed in 200 mM sucrose solution with fluorescently labelled ssDNA oligonucleotides (SEQ ID NO:15). Leaf images were taken by Bio-Rad PharosFX imager equipped with a 488 nm laser from 4 h up to 48 h after uptake through petiole. Leaves incubated with 200 mM sucrose alone served as control.

[4] = test system: Nicotiana benthamiana phytoene desaturase; assay: single PDS ssDNA 22-mer on tobacco: bleaching of organs, seed set, germination (Example 12); assay type: in vivo
Description: Four-week old tobacco (Nicotiana benthamiana) plants were used in all treatments. Two fully expanded leaves (one cotyledon, one true leaf) were conditioned by dipping into freshly made surfactant solution (0.1% SILWET L-77® brand surfactant in double-distilled water) for a few seconds and allowed to dry for 15-30 minutes. Twenty microliters of a single-stranded DNA (ssDNA) 22-mer oligonucleotide with the sequence […] (SEQ ID NO:39), corresponding to the nucleotides at positions 1099-1120 of Nicotiana benthamiana phytoene desaturase (SEQ ID NO:2) was applied as a 25 micromolar solution in 0.01% SILWET L-77® brand surfactant in 5 millimolar sodium phosphate buffer, pH 6.8 to the top surface of each conditioned leaf for a total of 40 microliters (1 nanomole oligonucleotide) per plant. Control plants were treated with the SILWET® brand surfactant solution without the DNA oligonucleotide.
Flowers of both control and ssDNA-treated plants were allowed to set seed. Seeds were collected from mature fruits, weighed, and allowed to germinate. Seed weights were identical (about 11 mg per 100 seeds) and seed morphology appeared similar between the ssDNA-treated and the control plants.
In a separate assay using a similar procedure, tobacco plants were conditioned by dipping in 0.1% SILWET L-77® brand surfactant in double-distilled water, allowed to dry for 15-30 minutes, and treated with the PDS ssDNA 22-mer (SEQ ID NO:39) applied as a 25 micromolar solution in 0.01% SILWET L-77® brand surfactant in 5 millimolar sodium phosphate buffer, pH 6.8 to the top surface of each conditioned leaf for a total of 40 microliters (1 nanomole oligonucleotide) per plant. Other plants were not conditioned with a surfactant treatment, but were treated only with 1 nanomole of the PDS ssDNA 22-mer (SEQ ID NO:39) applied either by infiltration with a needleless syringe (shown in FIG. 18B) or by hand application of drops to the leaf surface (not shown in FIG. 18B), and either as a 25 micromolar solution in 0.01% SILWET L-77® brand surfactant in 5 millimolar sodium phosphate buffer, pH 6.8 or as a 25 micromolar solution in 5 millimolar sodium phosphate buffer, pH 6.8 (without surfactant). Negative control plants were treated with the SILWET® brand surfactant buffer solution without the DNA oligonucleotide. Results are depicted in FIG. 18B.

[5] = test system: Glyphosate-resistant Palmer amaranth plants (33, 36, or 57 copies EPSPS); assay: spermine, spermidine or ammonium sulfate with dsRNA then glyphosate (Example 35, FIG. 39); assay type: in vivo; conditions: for performance compared with 2% ammonium sulfate: 1 or 10 millimolar
Description: The effect of the polyamine cations spermine (N,N′-bis(3-aminopropyl)butane-1,4-diamine) and spermidine (N-(3-aminopropyl)butane-1,4-diamine) on herbicidal activity of topically applied polynucleotides (RNA) on glyphosate-resistant Palmer amaranth plants was investigated. […] The dsRNA polynucleotide solutions were prepared with either 1 or 10 millimolar spermine or spermidine or 2% ammonium sulfate, in a 10 millimolar sodium phosphate (pH 6.8) buffer. Control solutions (without polynucleotides) were prepared with either 1 or 10 millimolar spermine or spermidine or 2% ammonium sulfate, in a 10 millimolar sodium phosphate (pH 6.8) buffer. Glyphosate-resistant Palmer amaranth plants (33, 36, or 57 copies EPSPS) were pre-sprayed with 1% SILWET L-77® brand surfactant. The dsRNA polynucleotide solutions (11.6 grams/acre) or buffer solutions were applied as drops on four lower fully expanded leaves of glyphosate resistant Palmer amaranth by pipetting. Two days following polynucleotide treatment the plants were sprayed with glyphosate (3360 g acid equivalent per hectare of Roundup® WeatherMAX® brand herbicide).

[6] = test system: volunteer glyphosate-resistant corn plants; assay: synthetic Pol III gene dsDNA on volunteer glyphosate-resistant corn in soybean (Example 8); assay type: in vivo; conditions: glyphosate 7 days after dsDNA; 15 days later
Text: This example illustrates the utility of employing a synthetic Pol III gene in compositions and methods of this invention. With reference to SEQ ID NO:3 and FIG. 2, a synthetic Pol III gene is created using elements from an Arabidopsis thaliana U6 snRNA gene to provide a dsDNA molecule with two copies of RGCCCR elements (bold and underlined), an upstream sequence element (USE) having the sequence “[…]” (SEQ ID NO:4, bold and underlined), a TATA box (bold and underlined), a “G” nucleotide (bold and underlined), anti-sense DNA (italics) corresponding to a bacterial DNA encoding an EPSPS protein (see U.S. Pat. RE39,247) that imparts resistance to glyphosate herbicide when expressed in transgenic corn plants, an “[…]” element (SEQ ID NO:5, bold and underlined) embedded in the anti-sense DNA, an “[…]” element (SEQ ID NO:6, bold and underlined) followed by sense DNA (lower case) and a “TTTTTT” terminator element (SEQ ID NO:7, bold and underlined). A solution of 0.1 wt % SILWET L-77® brand organosilicone surfactant and a solution of multiple copies of the dsDNA molecule are sprayed onto leaves of volunteer glyphosate-resistant corn plants growing in a field of glyphosate-resistant soybean plants, followed 7 days later by treatment with Roundup WeatherMAX® brand glyphosate herbicide. […]

Molecule: CCCC[P+](CCCC)(CCCC)CCCC.[Br-] [tetrabutylphosphonium bromide]
- effect of additive on efficacy of the polynucleotides and herbicidal activity of glyphosate [1]: act similarly to ammonium sulfate

Molecule: O=C(O)CN(CCN(CC(=O)O)CC(=O)O)CC(=O)O [ethylenediaminetetraacetic acid (EDTA), ethylenediaminetetraacetic acid]
- effect of additive on efficacy of the polynucleotides and herbicidal activity of glyphosate [1]: act similarly to 2% ammonium sulfate

Molecule: O=C(O)CNCP(=O)(O)O [isopropylammonium salt of glyphosate, glyphosate, reference compound]
- herbicidal activity by glyphosate salt ([2]; 1682 g ae/ha glyphosate salt with IDT [1]-[4], 21 days after glyphosate treatment): better herbicidal activity compared to the potassium salt

Molecule: ACCCTCCACGACTGCCCTTT (DNA, 5' {Alexa488}, backbone not given here; listed as Amaranthus palmeri) [Anti-sense_PO1_488, ssDNA anti-sense to Amaranthus palmeri EPSPS]
- time of release from vascular tissue into cells ([3]; after treatment): 8 h
- vascular uptake into leaf ([3]; petiole uptake in 200 mM sucrose, imaged 4 h to 48 h): slightly time-dependent vascular uptake

Molecule: CC(C)N.O=C(O)CNCP(=O)(O)O [IPA + glyphosate]
- Palmer control (%) [2]: 9%

Molecule: O=C(O)CNCP(=O)([O-])O.[K+] [K + glyphosate]
- Palmer control (%) [2]: 23%

Molecule: Cl.N [ammonium chloride]
- effect of additive on efficacy of the polynucleotides and herbicidal activity of glyphosate [1]: act similarly to ammonium sulfate

Molecule: GGCAGTACAATTAAAGGAGATG (DNA, backbone not given here; listed as Nicotiana benthamiana) [SEQ ID NO:39]
- bleaching without surfactant conditioning (FIG. 18B) ([4]; 1 nanomole by infiltration or hand application of drops, no conditioning): displayed bleaching of apical leaves, stems, and flowers
- bleaching of apical leaves, stems, and flowers (FIG. 18A) ([4]; 1 nanomole per plant after surfactant conditioning): all displayed bleaching
- germination rate ([4]; seeds from ssDNA-treated plants, control 95 out of 100): 4 out of 100
- seed weight ([4]; seeds from ssDNA-treated plants, identical to control): about 11 mg per 100 seeds

Molecule: NCCO.O=C(O)CNCP(=O)(O)O [MEA + glyphosate]
- Palmer control (%) [2]: 9%

Molecule: NCCCCNCCCN [spermidine, N-(3-aminopropyl)butane-1,4-diamine]
- effect on 33-copy plants of polyamine alone ([5]; 10 mM, without polynucleotides): stunted
- performance compared with 2% ammonium sulfate [5]: neither spermine nor spermidine at 1 or 10 millimolar performed as well as 2% ammonium sulfate

Molecule: OCC(O)CO [Glycerin, glycerin]
- effect of additive on efficacy of the polynucleotides and herbicidal activity of glyphosate [1]: enhance the efficacy of the polynucleotides

Molecule: NCCCNCCCCNCCCN [spermine, N,N′-bis(3-aminopropyl)butane-1,4-diamine]
- performance compared with 2% ammonium sulfate [5]: neither spermine nor spermidine at 1 or 10 millimolar performed as well as 2% ammonium sulfate

B1: synthetic Pol III gene: dsDNA from Arabidopsis U6 snRNA gene elements with anti-sense and sense DNA of bacterial EPSPS (nucleic acid)
DNA: GGCCCATAGGCCTTTTTCTAAAATAGGCCCATTTAAGCTATTAACAATCTTCAAAAGTACCACATCGCTTAGGTAAAGAAAGCAGCTGAGTTTATATATGGTTAGAGACGAAGTAGTGATTGCGACGAGCGACGTCTCGCCCTCATCGCAATCCACGCCATTGAGCTTGAGGCCATTGGCGACGGCCGAGAGGCGGTCGCTTAAGATTAGCATGTCCTTGACGCGGAGTTCTTCCAGACCGTTCATCACGGTCGCCCCTTCCGCGAAGGCGGCGGCGACAGCGAGAATCGGATATTCGTCGATCATCGAAGGCGCGCGGTCTTCCGGCACCGTGACGCATAAACACGGTGCCGGAAGACCGCGCGCCTTCGATGATCGACGAATATCCGATTCTCGCTGTCGCCGCCGCCTTCGCGGAAGGGGCGACCGTGATGAACGGTCTGGAAGAACTCCGCGTCAAGGAAAGCGACCGCCTCTCGGCCGTCGCCAATGGCCTCAAGCTCAATGGCGTGGATTGCGATGAGGGCGAGACGTCGCTCGTCGTTTTTTTTGGCAAAAA
- condition of soybean crop plants [6]: thriving
- condition of volunteer corn plants [6]: dead
